Laboratory results published in patent publication US5136080A, “Nitrile compounds” (Burroughs Wellcome Co., priority 1990, dated 1992).

Tests used:
Rat Liver DHFR = biological target: T1, Rat Liver DHFR (Rattus norvegicus, UniProt Q920D2); assay: biochemical; conditions: DHFR enzyme activity, P95 limits in parentheses
T1 sequence (Q920D2 1-187): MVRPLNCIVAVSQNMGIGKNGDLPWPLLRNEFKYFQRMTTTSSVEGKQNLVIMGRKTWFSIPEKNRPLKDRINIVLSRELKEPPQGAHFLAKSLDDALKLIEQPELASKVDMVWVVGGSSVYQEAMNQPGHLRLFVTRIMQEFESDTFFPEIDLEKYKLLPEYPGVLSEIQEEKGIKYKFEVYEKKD
Protocol: (§1) Compounds of Formula (I) were tested for their effect on veratrine-evoked release of glutamate from rat brain slices according to the protocol described in Epilepsia 27(5): 490-497, 1986. The protocol for testing for inhibition of DHFR activity was a modification of that set out in Biochemical Pharmacology Vol. 20 pp 561-574, 1971.

[1] = tested on: veratrine-evoked release of glutamate from rat brain slices; assay: tissue or blood; format: cell-based; conditions: P95 limits in parentheses
Protocol: as §1

[2] = Toxicology, once daily intravenous administration to Wistar rats; conditions: rat, in vivo, dose levels of upto 15 mg/kg/day, read-out: no observed effect dose
Protocol: The compound of Example 1 has been administered intravenously to groups of six male and six female Wistar rats once daily at dose levels of upto 15 mg/kg/day. The no observed effect dose was 2.5 mg/kg/day.

[3] = Duration of action / clearance from the central nervous system (statement); conditions: statement in words
Toxicology in rats = conditions: rat, in vivo, read-out: no observed effect dose
Protocol: (§2) The compound of Example 2, has been tested in both rats and dogs. In rats the no observed effect dose was 2.5 mg/kg/day and in dogs, the no observed effect dose was 14 mg/kg/day.

in vivo = assay: in vivo; design: species or system dogs; conditions: dog
Protocol: as §2

[4] = tested on: release of the excitatory amino acid glutamate; conditions: statement in words; Leach et al Epilepsia 27, 490-497 1986; Miller et al 1987; cited from earlier work
[5] = tested on: release of the excitatory amino acid aspartate; conditions: statement in words; Leach et al Epilepsia 27, 490-497 1986; Miller et al 1987; cited from earlier work

CN1CCN(c2nc(N)c(-c3cc(Cl)cc(Cl)c3Cl)c(C(F)(F)F)n2)CC1 [Example 1, 4-Amino-2-(4-methylpiperazin-1-yl)-5-(2,3,5-trichlorophenyl)-6-trifluoromethylpyrimidine]
IC50 (Rat Liver DHFR): > 100 µM | IC50 [1]: 1.18 µM | NOAEL [2]: 2.5 mg/kg/day

COCc1nc(N)nc(N)c1-c1cc(Cl)cc(Cl)c1Cl [Example 2, 2,4-Diamino-5-(2,3,5-trichlorophenyl)-6-methoxymethylpyrimidine]
clearance from the central nervous system [3]: cleared from the central nervous system rapidly | IC50 (Rat Liver DHFR): 33 µM | IC50 [1]: 0.56 µM | NOAEL (Toxicology in rats): 2.5 mg/kg/day | NOAEL (in vivo): 14 mg/kg/day

Nc1nc(N)c(-c2cc(Cl)cc(Cl)c2Cl)c(C(F)(F)F)n1 [Example 4, 2,4-Diamino-5-(2,3,5-trichlorophenyl)-6-trifluoromethylpyrimidine]
IC50 (Rat Liver DHFR): > 100 µM | IC50 [1]: 0.33 µM

Nc1ncc(-c2cc(Cl)c([N+](=O)[O-])c(Cl)c2Cl)c(N)n1 [Example 5, 2,4-Diamino-5-(4-nitro-2,3,5-trichlorophenyl)pyrimidine]
IC50 (Rat Liver DHFR): ~100 µM | IC50 [1]: 3.5 µM

Cc1nc(N)nc(N)c1-c1cc(Cl)cc(Cl)c1Cl [Example 6, 2,4-Diamino-5-(2,3,5-trichlorophenyl)-6-methylpyrimidine]
IC50 (Rat Liver DHFR): 0.51 µM | IC50 [1]: 0.7 µM

Nc1nc(N2CCOCC2)nc(C(F)(F)F)c1-c1cc(Cl)cc(Cl)c1Cl [Example 7, 4-Amino-2-N-morpholino-5-(2,3,5-trichlorophenyl)-6-trifluoromethylpyrimidine]
IC50 (Rat Liver DHFR): > 10 µM | IC50 [1]: < 10 µM

CN(C)c1nc(N)c(-c2cc(Cl)cc(Cl)c2Cl)c(C(F)(F)F)n1 [Example 8, 4-Amino-2-N,N-dimethylamino-5-(2,3,5-trichlorophenyl)-6-trifluoromethylpyrimidine]
IC50 (Rat Liver DHFR): > 10 µM | IC50 [1]: < 10 µM

Nc1nc(N2CCOCC2)ncc1-c1cc(Cl)cc(Cl)c1Cl [Example 9, 4-Amino-2-N-morpholino-5-(2,3,5-trichlorophenyl)-pyrimidine]
IC50 (Rat Liver DHFR): > 100 µM | IC50 [1]: < 10 µM

CN(C)c1ncc(-c2cc(Cl)cc(Cl)c2Cl)c(N)n1 [Example 10, 4-Amino-2-N,N-dimethylamino-5-(2,3,5-trichlorophenyl)pyrimidine]
IC50 (Rat Liver DHFR): > 100 µM | IC50 [1]: < 10 µM

Cc1nc(N2CCN(C)CC2)nc(N)c1-c1cc(Cl)cc(Cl)c1Cl [Example 11, 4-Amino-6-methyl-2-(4-methylpiperazin-1-yl)-5-(2,3,5-trichlorophenyl)pyrimidine]
IC50 (Rat Liver DHFR): > 100 µM | IC50 [1]: 4.8 µM

Cc1nc(N)nc(N)c1-c1cc(Cl)c([N+](=O)[O-])c(Cl)c1Cl [Example 12, 2,4-diamino-6-methyl-5-(2,3,5-trichloro-4-nitrophenyl) pyrimidine]
IC50 (Rat Liver DHFR): > 100 µM | IC50 [1]: < 10 µM

Cc1nc(N(C)C)nc(N)c1-c1cc(Cl)cc(Cl)c1Cl [Example 13, 4-Amino-2-(N,N-dimethylamino)-6-methyl-5-(2,3,5-trichlorophenyl)pyrimidine]
IC50 (Rat Liver DHFR): > 100 µM | IC50 [1]: < 10 µM

Nc1nc(N)c(-c2cccc(Cl)c2Cl)c(C(F)(F)F)n1 [Example 14, 2,4-Diamino-5-(2,3-dichlorophenyl)-6-trifluoromethylpyrimidine]
IC50 (Rat Liver DHFR): > 100 µM | IC50 [1]: 3.1 µM

Cc1nc(N)nc(N)c1-c1cccc(Cl)c1Cl [Example 15, 2,4-Diamino-5-(2,3-dichlorophenyl)-6-methylpyrimidine]
IC50 (Rat Liver DHFR): 8.7 µM | IC50 [1]: 2.7 µM

COCc1nc(N)nc(N)c1-c1cccc(Cl)c1Cl [Example 16, 2,4-Diamino-5-(2,3-dichlorophenyl)-6-methoxymethylpyrimidine]
IC50 (Rat Liver DHFR): > 100 µM | IC50 [1]: 3.2 µM

Nc1ncc(-c2cccc3ccccc23)c(N)n1 [Example 17, 2,4-Diamino-5-(1-naphthyl)pyrimidine]
IC50 (Rat Liver DHFR): 4.9 µM | IC50 [1]: 2.4 µM

Nc1nc(N)c(-c2cccc(Cl)c2Cl)c(CF)n1 [Example 18, 2,4-Diamino-5-(2,3-dichlorophenyl)-6-fluoromethylpyrimidine]
IC50 (Rat Liver DHFR): ~100 µM | IC50 [1]: < 10 µM

Nc1nc(N)c(-c2cccc(Cl)c2Cl)c(COc2ccccc2)n1 [Example 19, 2,4-Diamino-5-(2,3-dichlorophenyl)-6-phenoxymethylpyrimidine]
IC50 (Rat Liver DHFR): > 100 µM | IC50 [1]: 2.6 µM

CSCc1nc(N)nc(N)c1-c1cccc(Cl)c1Cl [Example 20, 2,4-Diamino-5-(2,3-dichlorophenyl)-6-methylthiomethylpyrimidine]
IC50 (Rat Liver DHFR): 17.5 µM | IC50 [1]: 4.2 µM

Nc1ncc(-c2cccc(Cl)c2Cl)c(N)n1 [Example 21, 2,4-Diamino-5-(2,3-dichlorophenyl)pyrimidine]
IC50 (Rat Liver DHFR): 16 µM | IC50 [1]: 11.5 µM

Cc1nc(N)nc(N)c1-c1ccccc1Cl [Example 22, 2,4-Diamino-5-(2-chlorophenyl)-6-methyl-pyrimidine]
IC50 (Rat Liver DHFR): 23.8 µM | IC50 [1]: 2.8 µM

Nc1ncc(-c2ccccc2Cl)c(N)n1 [Example 23, 2,4-Diamino-5-(2-chlorophenyl)pyrimidine]
IC50 (Rat Liver DHFR): 20.9 µM | IC50 [1]: 8.7 µM

CCc1nc(N)nc(N)c1-c1ccccc1Cl [Example 24, 2,4-Diamino-5-(2-chlorophenyl)-6-ethylpyrimidine]
IC50 (Rat Liver DHFR): 15.1 µM | IC50 [1]: 2.1 µM

Nc1nc(N)c(-c2ccc(Cl)cc2Cl)c(C(F)(F)F)n1 [Example 25, 2,4-Diamino-5-(2,4-dichlorophenyl)-6-trifluoromethylpyrimidine]
IC50 (Rat Liver DHFR): > 100 µM | IC50 [1]: 4.1 µM

Nc1nc(N)c(-c2ccc(Cl)cc2Cl)c(COCc2ccccc2)n1 [Example 26, 6-Benzyloxymethyl-2,4-diamino-5-(2,4-dichlorophenyl)pyrimidine]
IC50 (Rat Liver DHFR): ~10 µM | IC50 [1]: ~3 µM

CN1CCN(c2ncc(-c3ccc(Cl)cc3Cl)c(N)n2)CC1 [Example 27, 2-(4-methylpiperazin-1-yl)-4-amino-5-(2,4-dichlorophenyl)pyrimidine]
IC50 (Rat Liver DHFR): > 100 µM | IC50 [1]: ~10 µM

Nc1nc(N)c(-c2cc(Cl)ccc2Cl)c(C(F)(F)F)n1 [Example 28, 2,4-Diamino-5-(2,5-dichlorophenyl)-6-trifluoromethylpyrimidine]
IC50 (Rat Liver DHFR): 46.1 µM | IC50 [1]: 4.6 µM

Nc1ncc(-c2cc(Cl)cc(Cl)c2Cl)c(N)n1 [Example 29, 2,4-Diamino-5-(2,3,5-trichlorophenyl)pyrimidine]
IC50 (Rat Liver DHFR): 0.53 µM | IC50 [1]: 1.57 µM

Nc1nnc(-c2cccc(Cl)c2Cl)c(N)n1 [lamotrigine, 3,5-diamino-6-(2,3-dichlorophenyl)-1,2,4-triazine]
inhibition of the release of glutamate [4]: shown to inhibit the release | inhibition of the release of aspartate [5]: shown to inhibit the release
